In the supplement of paper PMC11061612:

How the values were obtained:
Experiment in all cases: Bliss excess, mean over the matrix (fraction); higher = more synergy
[1] = tested on: LoVo (Colorectal Carcinoma)
Summary of the method: (§1)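 After 24 hours at 37°C and 5% CO2 in 1536-well plates, cells in DMEM/F12 or RPMI plus 10% FBS received two-drug dose matrices for 72 hours. Viability came from CellTiter-Glo 2.0 luminescence and was scaled as inhibition, anchored at 0 by vehicle wells and at 1 by blank wells. Combination Emax is taken as the second-highest inhibition in the matrix, and Bliss excess as the observed combination effect less EA + EB − EA·EB, with EA and EB the single-agent effects.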

NCI-H2461 (Mesothelioma) = tested on: NCI-H2461 (Mesothelioma)
Summary of the method: as §1

[2] = tested on: PCI-30 (Head and Neck Carcinoma)
Summary of the method: as §1

[3] = tested on: NCI-H69 (Small Cell Lung Carcinoma)
Summary of the method: as §1

HMV-II (Melanoma) = tested on: HMV-II (Melanoma)
Summary of the method: as §1

NCI-H2795 (Mesothelioma) = tested on: NCI-H2795 (Mesothelioma)
Summary of the method: as §1

[4] = tested on: K5 (Thyroid Gland Carcinoma)
Summary of the method: as §1

[5] = tested on: SW1271 (Small Cell Lung Carcinoma)
Summary of the method: as §1

[6] = tested on: RPMI-6666 (Non-Cancerous)
Summary of the method: as §1

NB14 (Neuroblastoma) = tested on: NB14 (Neuroblastoma)
Summary of the method: as §1

[7] = tested on: OVCAR-8 (Ovarian Carcinoma)
Summary of the method: as §1

[8] = tested on: EN (Endometrial Carcinoma)
Summary of the method: as §1

NCI-H28 (Mesothelioma) = tested on: NCI-H28 (Mesothelioma)
Summary of the method: as §1

Mewo (Melanoma) = tested on: Mewo (Melanoma)
Summary of the method: as §1

[9] = tested on: SK-OV-3 (Ovarian Carcinoma)
Summary of the method: as §1

SH-4 (Melanoma) = tested on: SH-4 (Melanoma)
Summary of the method: as §1

[10] = tested on: HARA (Squamous Cell Lung Carcinoma)
Summary of the method: as §1

[11] = tested on: HO-1-u-1 (Oral Cavity Carcinoma)
Summary of the method: as §1

[12] = tested on: 639-V (Bladder Carcinoma)
Summary of the method: as §1

| SMILES | Bliss excess [1] | Bliss excess (NCI-H2461 (Mesothelioma)) | Bliss excess [2] | Bliss excess [3] | Bliss excess (HMV-II (Melanoma)) | Bliss excess (NCI-H2795 (Mesothelioma)) | Bliss excess [4] | Bliss excess [5] | Bliss excess [6] | Bliss excess (NB14 (Neuroblastoma)) | Bliss excess [7] | Bliss excess [8] | Bliss excess (NCI-H28 (Mesothelioma)) | Bliss excess (Mewo (Melanoma)) | Bliss excess [9] | Bliss excess (SH-4 (Melanoma)) | Bliss excess [10] | Bliss excess [11] | Bliss excess [12] |
| --- | --- | --- | --- | --- | --- | --- | --- | --- | --- | --- | --- | --- | --- | --- | --- | --- | --- | --- | --- |
| C=CCn1c(=O)c2cnc(Nc3ccc(N4CCN(C)CC4)cc3)nc2n1-c1cccc(C(C)(C)O)n1 [AZD1775] + C1CN(CCC1(C(=O)N[C@@H](CCO)C2=CC=C(C=C2)Cl)N)C3=NC=NC4=C3C=CN4 [Capivasertib] (first compound max 3 µM, partner max 3 µM) | 0.0281 | -0.0587 | -0.0677 | -0.0601 | -0.0774 | -0.0042 | 0.0493 | -0.0161 | -0.0148 | -0.0551 | -0.0167 | -0.0623 | -0.0725 | -0.0433 | -0.0692 | -0.0713 | -0.0002 | 0.037 | -0.0541 |
| COc1nnc2ccc(N3CCC(c4ccc(OCCN5CCN(C)C(=O)[C@H]5C)cc4)CC3)nn12 [AZD5153] + Cn1cnc2c(F)c(Nc3ccc(Br)cc3Cl)c(C(=O)NOCCO)cc21 [Selumetinib] (first compound max 1 µM, 7x7, partner max 10 µM) | 0.065 | -0.0415 | -0.0426 | -0.0503 | 0.0275 | -0.03 | -0.0937 | -0.0034 | -0.0462 | -0.0325 | 0.0159 | 0.023 | -0.0199 | 0.0325 | -0.0545 | 0.0222 | 0.0308 | 0.0747 | -0.0459 |
| C[C@@H](c1ccc2nccn2c1)n1nnc2ncc(-c3cnn(C)c3)nc21 [Savolitinib] + CC1(C)CCC(CN2CCN(c3ccc(C(=O)NS(=O)(=O)c4ccc(NCC5CCOCC5)c([N+](=O)[O-])c4)c(Oc4cnc5[nH]ccc5c4)c3)CC2)=C(c2ccc(Cl)cc2)C1 [Venetoclax] (first compound max 1 µM, 7x7, partner max 1 µM) | -0.0394 | -0.0641 | -0.0899 | -0.0144 | -0.0621 | 0.0032 | -0.0374 | -0.0436 | -0.0557 | -0.0082 | -0.035 | -0.0643 | -0.0481 | -0.0647 | -0.0511 | -0.0535 | -0.031 | -0.039 | -0.112 |
| CN(C)CCCOc1ccc(-c2ccc3ncc4c(c3c2)n(C2CCOCC2)c(=O)n4C)cn1 [AZD0156] + O=C(c1cc(Cc2n[nH]c(=O)c3ccccc23)ccc1F)N1CCN(C(=O)C2CC2)CC1 [Olaparib] (first compound max 3 µM, partner max 3 µM) | 0.0346 | -0.0194 | -0.0129 | 0.0386 | -0.0287 | 0.0432 | 0.0542 | 0.0098 | 0.119 | 0.218 | 0.0073 | -0.0292 | -0.0415 | -0.0711 | -0.0179 | 0.0237 | 0.0504 | 0.0795 | 0.0535 |
| NC1(C(=O)N[C@@H](CCO)c2ccc(Cl)cc2)CCN(c2ncnc3[nH]ccc23)CC1 [Capivasertib] + C[C@@H]1COCCN1C2=NC(=NC(=C2)C3(CC3)[S@](=N)(=O)C)C4=C5C=CNC5=NC=C4 [AZD6738] (first compound max 10 µM, 7x7, partner max 10 µM) | -0.0575 | -0.0866 | -0.0582 | -0.0397 | -0.0717 | -0.0197 | -0.0693 | -0.0657 | -0.118 | -0.032 | -0.0485 | -0.039 | -0.0702 | -0.0968 | -0.0456 | -0.036 | -0.0719 | -0.0167 | -0.0134 |
| NC1(C(=O)N[C@@H](CCO)c2ccc(Cl)cc2)CCN(c2ncnc3[nH]ccc23)CC1 [Capivasertib] + CC(=O)c1c(C)c2cnc(Nc3ccc(N4CCNCC4)cn3)nc2n(C2CCCC2)c1=O [Palbociclib] (first compound max 10 µM, 7x7, partner max 10 µM) | -0.03 | -0.0609 | -0.0554 | -0.0632 | -0.0138 | 0.0247 | -0.0106 | 0.043 | -0.0423 | 0.0419 | -0.0017 | -0.0165 | -0.0343 | -0.0588 | -0.0463 | -0.045 | 0.0388 | -0.0234 | -0.0612 |
| CS(=O)(=O)CCNCc1ccc(-c2ccc3ncnc(Nc4ccc(OCc5cccc(F)c5)c(Cl)c4)c3c2)o1 [Lapatinib] + C[C@@H](Oc1cc(-c2cnn(C3CCNCC3)c2)cnc1N)c1c(Cl)ccc(F)c1Cl [Crizotinib] (first compound max 10 µM, 7x7, partner max 10 µM) | -0.0217 | -0.0523 | -0.0917 | -0.0303 | -0.11 | -0.0569 | -0.0213 | -0.03 | -0.0624 | -0.0338 | -0.037 | -0.0418 | -0.0342 | -0.032 | -0.0268 | -0.0365 | -0.0259 | -0.0264 | -0.0596 |
